# Measured values as given in patent publication US6849256B1, “Inhibition of pathogens by probiotic bacteria” (priority 1999, dated 2005).
# Test system: Bacillus coagulans, subspecies Hammer (ATCC-31284)
# Assay: Kirby-Bauer antibiotic susceptibility testing of Bacillus coagulans
# Assay type: cell-based
# Conditions: inhibition zone diameter (disk diffusion)
row,Compound,"Susceptibility of Bacillus coagulans to the antibiotic, Kirby-Bauer testing"
1,CC1(C)S[C@@H]2[C@H](NC(=O)[C@H](N)c3ccccc3)C(=O)N2[C@H]1C(=O)O [ampicillin],Susceptible
2,O=C(O)c1cn(C2CC2)c2cc(N3CCNCC3)c(F)cc2c1=O [ciprofloxacin],Susceptible
3,CC[C@H]1OC(=O)[C@H](C)[C@@H](O[C@H]2C[C@@](C)(OC)[C@@H](O)[C@H](C)O2)[C@H](C)[C@@H](O[C@@H]2O[C@H](C)C[C@H](N(C)C)[C@H]2O)[C@](C)(O)C[C@@H](C)C(=O)[C@H](C)[C@@H](O)[C@]1(C)O [erythromycin],Susceptible
4,Cc1onc(-c2ccccc2)c1C(=O)N[C@@H]1C(=O)N2[C@@H]1SC(C)(C)[C@@H]2C(=O)O [oxacillin],Susceptible
5,CO[C@H]1/C=C/O[C@@]2(C)Oc3c(C)c(O)c4c(O)c(c(/C=N/N5CCN(C)CC5)c(O)c4c3C2=O)NC(=O)/C(C)=C\C=C\[C@H](C)[C@H](O)[C@@H](C)[C@@H](O)[C@@H](C)[C@H](OC(C)=O)[C@@H]1C [rifampin],Susceptible
6,CN[C@H](CC(C)C)C(=O)N[C@H]1C(=O)N[C@@H](CC(N)=O)C(=O)N[C@H]2C(=O)N[C@H]3C(=O)N[C@H](C(=O)N[C@H](C(=O)O)c4cc(O)cc(O)c4-c4cc3ccc4O)[C@H](O)c3ccc(c(Cl)c3)Oc3cc2cc(c3O[C@@H]2O[C@H](CO)[C@@H](O)[C@H](O)[C@H]2O[C@H]2C[C@](C)(N)[C@H](O)[C@H](C)O2)Oc2ccc(cc2Cl)[C@H]1O [vancomycin],Susceptible
7,gentamicin,Susceptible
8,trimethoprim-sulfamethoxazole,Susceptible

# Test system: Bacillus coagulans, subspecies Hammer (ATCC-31284)
# Assay: Vitek machine-based antibiotic susceptibility testing of Bacillus coagulans
# Assay type: cell-based
# Conditions: 500 μg/ml
row,Compound,"Susceptibility of Bacillus coagulans to the antibiotic, Vitek testing"
1,gentamicin,Susceptible

# Same assay, conditions: 2,000 μg/ml
row,Compound,"Susceptibility of Bacillus coagulans to the antibiotic, Vitek testing"
1,[H]/N=C(/N)N[C@H]1[C@H](O)[C@@H](O)[C@H](O[C@@H]2O[C@@H](C)[C@](O)(C=O)[C@H]2O[C@@H]2O[C@@H](CO)[C@H](O)[C@@H](O)[C@@H]2NC)[C@@H](N/C(N)=N\[H])[C@@H]1O [streptomycin],Susceptible

# Same assay, conditions: optical density of culture
row,Compound,"Susceptibility of Bacillus coagulans to the antibiotic, Vitek testing"
1,O=C(N[C@H](CO)[C@H](O)c1ccc([N+](=O)[O-])cc1)C(Cl)Cl [chloramphenicol],Susceptible
2,CCn1cc(C(=O)O)c(=O)c2cc(F)c(N3CCNCC3)cc21 [norfloxacin],Susceptible
3,CN[C@H](CC(C)C)C(=O)N[C@H]1C(=O)N[C@@H](CC(N)=O)C(=O)N[C@H]2C(=O)N[C@H]3C(=O)N[C@H](C(=O)N[C@H](C(=O)O)c4cc(O)cc(O)c4-c4cc3ccc4O)[C@H](O)c3ccc(c(Cl)c3)Oc3cc2cc(c3O[C@@H]2O[C@H](CO)[C@@H](O)[C@H](O)[C@H]2O[C@H]2C[C@](C)(N)[C@H](O)[C@H](C)O2)Oc2ccc(cc2Cl)[C@H]1O [vancomycin],Susceptible
4,penicillin,Susceptible
